According to patent US7186749B2, “Pyrrolo-naphthyl acids and methods for using them” (Wyeth, priority 2004, dated 2007):

Legend:
[1] = molecular target: T1, recombinant human plasminogen activator inhibitor-1 (PAI-1) (Homo sapiens, UniProt P05121); assay: Primary screen for PAI-1 inhibition (chromogenic tPA activity, Spectrozyme-tPA); format: biochemical; details: 140 nM PAI-1, 70 nM tPA, pH 6.6; for inhibition at 10 µM: test compound 10 μM; for inhibition at 25 µM: test compound 25 μM
T1 construct: purchased Molecular Innovations, Royal Oak, Mich
T1 sequence (P05121 24-402): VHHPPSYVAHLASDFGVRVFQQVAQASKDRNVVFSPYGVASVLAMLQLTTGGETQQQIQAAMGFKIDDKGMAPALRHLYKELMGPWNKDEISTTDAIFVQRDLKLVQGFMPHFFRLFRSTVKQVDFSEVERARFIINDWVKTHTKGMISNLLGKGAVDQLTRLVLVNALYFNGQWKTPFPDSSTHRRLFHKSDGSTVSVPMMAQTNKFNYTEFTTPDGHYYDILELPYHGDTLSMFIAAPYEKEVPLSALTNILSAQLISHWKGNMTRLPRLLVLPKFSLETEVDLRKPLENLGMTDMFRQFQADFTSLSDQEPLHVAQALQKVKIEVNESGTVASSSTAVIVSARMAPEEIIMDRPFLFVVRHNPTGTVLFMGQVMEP
Experimental: Test compounds are dissolved in DMSO at a final concentration of 10 mM, then diluted 100× in physiologic buffer. The inhibitory assay is initiated by the addition of the test compound (1–100 μM final concentration, maximun DMSO concentration of 0.2%) in a pH 6.6 buffer containing 140 nM recombinant human plasminogen activator inhibitor-1 (PAI-1; Molecular Innovations, Royal Oak, Mich.). Following a 1 hour incubation at room temperature, 70 nM of recombinant human tissue plasminogen activator (tPA) is added, and the combination of the test compound, PAI-1 and tPA is incubated for an additional 30 minutes. Following the second incubation, Spectrozyme-tPA (American Diagnostica, Greenwich, Conn.), a chromogenic substrate for tPA, is added and absorbance read at 405 nm at 0 and 60 minutes. Relative PAI-1 inhibition is equal to the residual tPA activity in the presence of the test compound and PAI-1. Control treatments include the complete inhibition of tPA by PAI-1 at the molar ratio employed (2:1), and the absence of any effect of the test compound on tPA alone.

[2] = molecular target: human PAI-1 (Homo sapiens, UniProt P05121); assay: Antibody assay for determining IC50 of inhibition of PAI-1 (active PAI-1 bound to tPA-coated plate); format: binding; details: pH 7.5, human PAI-1 50 ng/ml
human PAI-1, sequence (P05121 24-402): as above
Experimental: This assay is based upon the non-SDS dissociable interaction between tPA and active PAI-1. Assay plates are initially coated with human tPA (10 μg/ml). Test compounds of the present invention are dissolved in DMSO at 10 mM, then diluted with physiologic buffer (pH 7.5) to a final concentration of 1–50 μM. Test compounds are incubated with human PAI-1 (50 ng/ml) for 15 minutes at room temperature. The tPA-coated plate is washed with a solution of 0.05% Tween 20 and 0.1% BSA, then the plate is blocked with a solution of 3% BSA. An aliquot of the pyrrolo-naphthyl/PAI-1 solution is then added to the tPA-coated plate, incubated at room temperature for 1 hour, and washed. Active PAI-1 bound to the plate is assessed by adding an aliquot of a 1:1000 dilution of the 33B8 monoclonal antibody against human PAI-1, and incubating the plate at room temperature for 1 hour (Molecular Innovations, Royal Oak, Mich.). The plate is again washed, and a solution of goat anti-mouse IgG-alkaline phosphatase conjugate is added at a 1:50,000 dilution in goat serum. The plate is incubated 30 minutes at room temperature, washed, and a solution of alkaline phosphatase substrate is added. The plate is incubated 45 minutes at room temperature, and color development is determined at OD405 nm. The quantitation of active PAI-1 bound to tPA at varying concentrations of the test compound is used to determine the IC50. Results are analyzed using a logarithmic best-fit equation. The assay sensitivity is 5 ng/ml of human PAI-1 as determined from a standard curve ranging from 0–100 ng/ml.

| inhibition at 10 µM [1] [%] | inhibition at 25 µM [1] [%] | IC50 [2] [µM] | melting point | SMILES |
| --- | --- | --- | --- | --- |
| 12 | 78 | 44.4 | 176 to 178 °C | O=C(O)C(Cc1ccccc1)Oc1ccc2cc(-c3ccc(-c4ccccc4)[nH]3)ccc2c1 (stereo not drawn) [Example 1, 3-phenyl-2-{[6-(5-phenyl-1H-pyrrol-2-yl)-2-naphthyl]oxy}propanoic acid] |
| 37 | 66 | 16.1 | 70 to 80 °C | O=C(O)C(Cc1ccccc1)Oc1ccc2cc(-c3ccc(-c4ccccc4)n3Cc3ccccc3)ccc2c1 (stereo not drawn) [Example 2, 2-{[6-(1-benzyl-5-phenyl-1H-pyrrol-2-yl)-2-naphthyl]oxy}-3-phenylpropanoic acid] |
| 15 | 52 | 33 | 237 to 240 °C (dec.) | c1ccc(-c2ccc(-c3ccc4cc(OCc5nnn[nH]5)ccc4c3)[nH]2)cc1 [Example 3, 5-({[6-(5-phenyl-1H-pyrrol-2-yl)-2-naphthyl]oxy}methyl)-1H-tetraazole] |
| 11 | 67 |  | 190 to 200 °C (dec.) | c1ccc(Cn2c(-c3ccccc3)ccc2-c2ccc3cc(OCc4nnn[nH]4)ccc3c2)cc1 [Example 4, 5-({[6-(1-benzyl-5-phenyl-1H-pyrrol-2-yl)-2-naphthyl]oxy}methyl)-1H-tetraazole] |
| 15 | 32 |  | 231 to 233 °C (dec.) | Cn1c(-c2ccccc2)ccc1-c1ccc2cc(OCc3nnn[nH]3)ccc2c1 [Example 5, 5-({[6-(1-methyl-5-phenyl-1H-pyrrol-2-yl)-2-naphthyl]oxy}methyl)-1H-tetraazole] |
| 14 | 74 |  | 171 to 172 °C | O=C(O)COc1ccc2cc(-c3ccc(-c4ccccc4)n3Cc3ccccc3)ccc2c1 [Example 6, {[6-(1-benzyl-5-phenyl-1H-pyrrol-2-yl)-2-naphthyl]oxy}acetic acid] |
| 30 | 95 |  | 171 to 173 °C | Cn1c(-c2ccccc2)ccc1-c1ccc2cc(OC(Cc3ccccc3)C(=O)O)ccc2c1 (stereo not drawn) [Example 7, 2-{[6-(1-methyl-5-phenyl-1H-pyrrol-2-yl)-2-naphthyl]oxy}-3-phenylpropanoic acid] |
| 43 | 62 |  | 153 to 155 °C | O=C(O)C(Cc1ccccc1)Oc1ccc2cc(-c3ccc(-c4ccccc4)n3Cc3ccc(C(F)(F)F)cc3)ccc2c1 (stereo not drawn) [Example 8, 3-phenyl-2-[(6-{5-phenyl-1-[4-(trifluoromethyl)benzyl]-1H-pyrrol-2-yl}2-naphthyl)oxy]propanoic acid] |
| 31 | 49 |  | 173 to 175 °C | FC(F)(F)c1ccc(Cn2c(-c3ccccc3)ccc2-c2ccc3cc(OCc4nnn[nH]4)ccc3c2)cc1 [Example 9, 5-{[(6-{5-Phenyl-1-[4-(trifluoromethyl)benzyl]-1H-pyrrol-2-yl}-2-naphthyl)oxy]methyl}-1H-tetraazole] |
| 29 | 55 |  | 154 to 156 °C | O=C(O)COc1ccc2cc(-c3ccc(-c4ccccc4)n3Cc3ccc(C(F)(F)F)cc3)ccc2c1 [Example 10, [(6-{5-Phenyl-1-[4-(trifluoromethyl)benzyl]-1H-pyrrol-2-yl}-2-naphthyl)oxy]acetic acid] |
| 30 | 68 |  | 269 to 270 °C (dec.) | c1ccc(-c2ccc(-c3ccc4cc(OCc5nnn[nH]5)ccc4c3)n2-c2ccccc2)cc1 [Example 11, 5-({[6-(1,5-diphenyl-1H-pyrrol-2-yl)-2-naphthyl]oxy}methyl)-1H-tetraazole] |
| 48 | 58 |  | 258 to 260 °C (dec.) | O=C(O)COc1ccc2cc(-c3ccc(-c4ccccc4)n3-c3ccccc3)ccc2c1 [Example 12, {[6-(1,5-diphenyl-1H-pyrrol-2-yl)-2-naphthyl]oxy}acetic acid] |
| 33 | 60 |  | 194 to 196 °C (dec.) | O=C(O)C(Cc1ccccc1)Oc1ccc2cc(-c3ccc(-c4ccccc4)n3-c3ccccc3)ccc2c1 (stereo not drawn) [Example 13, 2-{[6-(1,5-diphenyl-1H-pyrrol-2-yl)-2-naphthyl]oxy}-3-phenylpropanoic acid] |
| 23 | 31 |  | 228 to 229 °C | O=C(O)c1ccc(COc2ccc3cc(-c4ccc(-c5ccccc5)n4Cc4ccc(C(F)(F)F)cc4)ccc3c2)cc1 [Example 14, 4-{[(6-{5-phenyl-1-[4-(trifluoromethyl)benzyl]-1H-pyrrol-2-yl}-2-naphthyl)oxy]methyl}benzoic acid] |
| 30 | 68 |  | 309 to 310 °C | O=C(O)c1ccc(COc2ccc3cc(-c4ccc(-c5ccccc5)n4-c4ccccc4)ccc3c2)cc1 [Example 15, 4-({[6-(1,5-diphenyl-1H-pyrrol-2-yl)-2-naphthyl]oxy}methyl)benzoic acid] |
| 40 | 63 |  | 250 to 252 °C | O=C(O)c1ccc(COc2ccc3cc(-c4ccc(-c5ccccc5)n4Cc4ccc(C(F)(F)F)cc4)ccc3c2)c(C(=O)O)c1 [Example 16, 4-{[(6-{5-phenyl-1-[4-(trifluoromethyl)benzyl]-1H-pyrrol-2-yl}-2-naphthyl)oxy]methyl}isophthalic acid] |
| 18 | 44 |  | 289 to 291 °C | O=C(O)c1ccc(COc2ccc3cc(-c4ccc(-c5ccccc5)[nH]4)ccc3c2)c(C(=O)O)c1 [Example 17, 4-({[6-(5-phenyl-1H-pyrrol-2-yl)-2-naphthyl]oxy}methyl)isophthalic acid] |
